Measured values reported in patent EP2676954A1, “Heterocyclyl-substituted-phenyl derivatives as vasodilators” (Laboratorios del Dr. Esteve S.A., priority 2012, dated 2013).

System: Male Wistar rats
Experiment: Penile erection test (penile erection score) in conscious rats
Format: in vivo
Settings: after local injection (animal studies)
Experimental: Male Wistar rats aged from 8 to 10 weeks old (250 - 320 g) were used in these studies. Animals were housed in groups of five, provided with food and water ad libitum and kept in controlled laboratory conditions with the temperature maintained at 22 ± 2 °C and light in 12 h cycles (on at 06:00 h and off at 18:00 h). Experiments were carried out in a soundproof and air-regulated experimental room. The number of rats ranged from 5 to 34 per group in each individual experiment.
Drugs used for treatments were: Compound 1, Compound 2, Compound 3 and Alprostadil.
Male Wistar rats received local injections (intrapenis injections) or topical administrations of test substances and penile erection was quantified (penile erection score) from 15 to 30 min after local drug injection and from 5 to 60 min after topical drug administration. The magnitude of penile erection is determined by penile erection score. The Baseline was determined based on vehicle injection. […]
For evaluating the penile erection after both types of administration, a qualitative score method was used, where 0 = no effect, 1 = slight effect, 2 = some effect without exposure of the penis, and 3 = clear effect with exposure of the penis. The reading times for the local injection were 15 and 30 minutes, and for the topical application were 5, 15, 30, and 60 minutes.
Data are expressed as Mean±SEM. […]

SMILES | penile erection
Cc1nn(C)c(C)c1-c1cccc(CCN(C)C)c1 [Compound 2, Dimethyl-{2-[3-(1,3,5-trimethyl-1H-pyrazol-4-yl)-phenyl]-ethyl}-amine] | cause penile erection in the absence of sexual stimulation
Cc1nn(C)c(C)c1-c1ccc(O)c(CCN(C)C)c1 [Compound 1, 2-(2-(Dimethylamino)ethyl)-4-(1,3,5-trimethyl-1H-pyrazol-4-yl)phenol] | cause penile erection in the absence of sexual stimulation
